Data: EPA's ToxRefDB 2

Assays:
rat [1] = conditions: Subchronic oral toxicity in rodents, fischer, Feed, dose end: 13 week, group: systemic
mouse [2] = conditions: Carcinogenicity, b6c3f1, Oral, Feed, dose end: 2 year, group: systemic
rat [3] = conditions: Prenatal developmental toxicity study, fischer, Oral, Gavage/Intubation, dose end: 15 GD
mouse [4] = conditions: Subchronic oral toxicity in rodents, cd1, Water, dose end: 90 day, group: systemic, systemic / hematology / leukocyte (wbc) count differential / leukocyte (wbc)
rat [5] = conditions: Carcinogenicity, fischer, Oral, Feed, dose end: 2 year, group: systemic
mouse [6] = conditions: Subchronic oral toxicity in rodents, b6c3f1, Feed, dose end: 13 week, group: systemic
rat [7] = conditions: Multigenerational reproductive toxicity study, wistar, Oral, Feed, dose end: 2 generation
rat [8] = conditions: Subchronic oral toxicity in rodents, fischer, Feed, dose end: 13 week, group: systemic; remark: listed apart in the source
mouse [9] = conditions: Subchronic oral toxicity in rodents, cd1, Feed, dose end: 13 week, group: systemic
rat [10] = conditions: Combined chronic toxicity/carcinogenicity; fischer; Oral; Feed; dose end: 104 week; group: systemic; systemic / pathology microscopic / kidney / hemosiderosis
mouse [11] = conditions: Subchronic oral toxicity in rodents, cd1, Feed, dose end: 13 week, group: systemic; remark: listed apart in the source
dog [12] = conditions: Chronic toxicity, beagle, Oral, Feed, dose end: 12 month, group: systemic
dog [13] = conditions: Subchronic oral toxicity in nonrodent, beagle, Feed, dose end: 13 week, group: systemic
rat [14] = conditions: Subchronic oral toxicity in rodents, sprague dawley, Feed, dose end: 90 day, group: systemic
mouse [15] = conditions: Subchronic oral toxicity in rodents, cd1, Feed, dose end: 90 day, group: systemic
rabbit [16] = conditions: Sub-acute repeat dose toxicity; Injection; Intravenous; dose end: 5 day; group: systemic; systemic / in life observation / clinical signs / altered breathing rate + systemic / in life observation / clinical signs / labored …
rat [17] = conditions: Sub-acute repeat dose toxicity, Injection, Intravenous, dose end: 5 day, group: systemic
rabbit [18] = conditions: Prenatal developmental toxicity study, Injection, Intravenous, dose end: 18 GD
rat [19] = conditions: Subchronic inhalation toxicity, wistar, Whole-Body, dose end: 13 week, group: systemic
rat [20] = conditions: Subchronic inhalation toxicity, wistar, Whole-Body, dose end: 13 week, group: systemic, systemic / pathology microscopic / lung / alveolar macrophages + systemic / in life observation / body weight / body weight
rat [21] = conditions: Subchronic inhalation toxicity, wistar, Whole-Body, dose end: 13 week, group: systemic, systemic / clinical chemistry / alanine aminotransferase (alt/sgpt) / alanine aminotransferase (alt/sgpt) + systemic / clinical chemistry / …
rat [22] = conditions: Subchronic inhalation toxicity, wistar, Whole-Body, dose end: 13 week, group: systemic, systemic / pathology microscopic / lung / alveolar macrophages + systemic / pathology microscopic / lung / fibrosis + systemic / pathology …
[23] = systemic / in life observation / body weight / body weight + systemic / pathology microscopic / bone marrow / atrophy + systemic / in life …
[24] = systemic / in life observation / body weight / body weight
[25] = systemic / in life observation / body weight / body weight + systemic / in life observation / food consumption / food consumption
[26] = group: developmental, developmental / developmental malformation / bone / delayed ossification + developmental / developmental malformation / bone / unossified + …
[27] = group: maternal, systemic / in life observation / body weight / body weight + systemic / in life observation / body weight / body weight gain + systemic / in…
[28] = group: maternal, systemic / in life observation / body weight / body weight gain + systemic / in life observation / clinical signs / urogenital staining
[29] = systemic / in life observation / food consumption / food consumption
[30] = systemic / pathology microscopic / liver / necrosis
[31] = group: offspring, systemic / pathology gross / mammary gland / discolored + systemic / pathology gross / mammary gland / enlarged
[32] = group: parental, systemic / in life observation / clinical signs / body surface staining + systemic / in life observation / body weight / body weight + …
[33] = group: parental, systemic / organ weight / pituitary gland / absolute + systemic / organ weight / pituitary gland / relative to body weight
[34] = group: reproductive, reproductive / reproductive performance / implantations / implantations
[35] = systemic / clinical chemistry / albumin / albumin
[36] = systemic / organ weight / kidney / absolute + systemic / organ weight / liver / absolute + systemic / organ weight / liver / relative to …
[37] = systemic / organ weight / kidney / absolute + systemic / organ weight / kidney / relative to body weight + systemic / pathology microscopic…
[38] = systemic / pathology gross / gallbladder / [other] + systemic / pathology gross / gallbladder / distended + systemic / pathology microscopic…
[39] = systemic / clinical chemistry / potassium / potassium
[40] = systemic / organ weight / thymus / absolute + systemic / organ weight / thymus / relative to body weight + systemic / pathology gross / …
[41] = systemic / in life observation / body weight / body weight + systemic / in life observation / body weight / body weight gain + systemic / in…
[42] = systemic / pathology microscopic / ovary / degeneration + systemic / clinical chemistry / albumin / albumin + systemic / clinical chemistry…
[43] = group: developmental, developmental / developmental malformation / bone / incomplete ossification + systemic / in life observation / body weight / fetal weight
[44] = systemic / pathology microscopic / lung / alveolar macrophages + systemic / pathology microscopic / lung / cholesterol cleft(s) + systemic…

Oc1ccc(Cl)cc1Cl [2,4-Dichlorophenol]
LOAEL (rat [1]; systemic / in life observation / body weight / body weight + systemic / pathology microscopic / bone marrow / atrophy): 1000 mg/kg/day | NEL (rat [1]; [23]): 250 mg/kg/day | NOAEL (rat [1]; [23]): 500 mg/kg/day | LEL (rat [1]; systemic / pathology microscopic / bone marrow / atrophy): 500 mg/kg/day | LOAEL (mouse [2]; [24]): 430 mg/kg/day | NOAEL (mouse [2]; [24]): < 430 mg/kg/day | LEL (mouse [2]; [25]): 430 mg/kg/day | NEL (mouse [2]; [25]): < 430 mg/kg/day | LEL (rat [3]; [26]): 750 mg/kg/day | LOAEL (rat [3]; [26]): > 750 mg/kg/day | NEL (rat [3]; [26]): 375 mg/kg/day | NOAEL (rat [3]; [26]): ≥ 750 mg/kg/day | LOAEL (rat [3]; [27]): > 750 mg/kg/day | NOAEL (rat [3]; [27]): ≥ 750 mg/kg/day | LEL (rat [3]; [28]): 200 mg/kg/day | NEL (rat [3]; [28]): < 200 mg/kg/day | LEL (mouse [4]): 383 mg/kg/day | LOAEL (mouse [4]): > 383 mg/kg/day | NEL (mouse [4]): 114 mg/kg/day | NOAEL (mouse [4]): ≥ 383 mg/kg/day | LEL (rat [5]; [29]): 120 mg/kg/day | NEL (rat [5]; [29]): < 120 mg/kg/day | LOAEL (rat [5]; systemic / pathology microscopic / nose / degeneration): 210 mg/kg/day | NOAEL (mouse [6]; systemic / in life observation / body weight / body weight + systemic / in life observation / clinical signs / fur (altered appearance) + …): 1500 mg/kg/day | LOAEL (mouse [6]; systemic / in life observation / body weight / body weight + systemic / pathology microscopic / liver / necrosis + systemic / pathology …): 3000 mg/kg/day | LEL (mouse [6]; [30]): 375 mg/kg/day | NEL (mouse [6]; [30]): < 375 mg/kg/day | LOAEL (rat [7]; group: offspring, developmental / developmental malformation / eye / open eye + systemic / in life observation / body weight / offspring (pup) weight): 543 mg/kg/day | NOAEL (rat [7]; group: offspring, developmental / developmental malformation / eye / open eye + systemic / in life observation / body weight / offspring (pup) weight + …): 134 mg/kg/day | LEL (rat [7]; [31]): 49.1 mg/kg/day | NEL (rat [7]; [31]): < 49.1 mg/kg/day | LOAEL (rat [7]; [32]): 543 mg/kg/day | NOAEL (rat [7]; [32]): 134 mg/kg/day | LEL (rat [7]; [33]): 33.4 mg/kg/day | NEL (rat [7]; [33]): < 33.4 mg/kg/day | LEL (rat [7]; [34]): 768 mg/kg/day | LOAEL (rat [7]; [34]): 768 mg/kg/day | NEL (rat [7]; [34]): 194 mg/kg/day | NOAEL (rat [7]; [34]): 194 mg/kg/day

CCCCOC(=O)[C@@H](C)Oc1ccc(Oc2ccc(C#N)cc2F)cc1 [Cyhalofop-butyl]
LEL (rat [8]; [35]): 1.72 mg/kg/day | NEL (rat [8]; [35]): < 1.72 mg/kg/day | NOAEL (rat [8]; systemic / clinical chemistry / albumin / albumin + systemic / pathology microscopic / kidney / [other] + systemic / pathology microscopic…): 60.5 mg/kg/day | LOAEL (rat [8]; systemic / pathology microscopic / kidney / [other] + systemic / pathology microscopic / kidney / pigmentation + systemic / pathology …): 190 mg/kg/day | LOAEL (mouse [9]; [36]): > 350 mg/kg/day | NOAEL (mouse [9]; [36]): ≥ 350 mg/kg/day | LEL (mouse [9]; systemic / pathology gross / liver / foci): 3 mg/kg/day | NEL (mouse [9]; systemic / pathology gross / liver / foci + systemic / clinical chemistry / alkaline phosphatase (alp/alk) / alkaline phosphatase (alp/alk…): 1 mg/kg/day | LEL (rat [10]): 3.44 mg/kg/day | LOAEL (rat [10]): 3.44 mg/kg/day | NEL (rat [10]): 0.823 mg/kg/day | NOAEL (rat [10]): 0.823 mg/kg/day | LOAEL (mouse [11]; [37]): 30 mg/kg/day | NOAEL (mouse [11]; [37]): 10 mg/kg/day | LEL (mouse [11]; systemic / organ weight / liver / relative to body weight): 3 mg/kg/day | NEL (mouse [11]; systemic / pathology microscopic / liver / inflammation + systemic / pathology microscopic / liver / necrosis + systemic / organ weight / …): 1 mg/kg/day | LEL (dog [12]; systemic / in life observation / body weight / body weight + systemic / in life observation / body weight / body weight gain): 7.59 mg/kg/day | NEL (dog [12]; systemic / in life observation / body weight / body weight + systemic / in life observation / body weight / body weight gain + systemic / …): 1.22 mg/kg/day | LOAEL (dog [12]; [38]): > 45.9 mg/kg/day | NOAEL (dog [12]; [38]): ≥ 45.9 mg/kg/day | LEL (dog [13]; [39]): 3.17 mg/kg/day | NEL (dog [13]; [39]): < 3.17 mg/kg/day | LOAEL (dog [13]; [40]): 75.2 mg/kg/day | NOAEL (dog [13]; [40]): 14.7 mg/kg/day | LOAEL (rat [14]; [41]): 800 mg/kg/day | NOAEL (rat [14]; [41]): 400 mg/kg/day | LEL (rat [14]; systemic / organ weight / liver / absolute + systemic / organ weight / liver / relative to body weight + systemic / pathology gross / liver…): 25 mg/kg/day | LEL (mouse [15]; systemic / organ weight / liver / absolute): 3.6 mg/kg/day | NEL (mouse [15]; systemic / organ weight / liver / absolute + systemic / in life observation / clinical signs / alopecia + systemic / organ weight / liver / …): 0.4 mg/kg/day | LOAEL (mouse [15]; systemic / pathology gross / kidney / enlarged + systemic / pathology microscopic / kidney / hypertrophy): 14.1 mg/kg/day | NOAEL (mouse [15]; systemic / pathology gross / kidney / enlarged + systemic / pathology microscopic / kidney / hypertrophy + systemic / organ weight / kidney…): 4.3 mg/kg/day

NC(N)=NC(=O)c1cnn(-c2cccc3ncccc23)c1C1CC1 [Zoniporide]
LOAEL (rabbit [16]): > 250 mg/kg/day | NEL (rabbit [16]): 50 mg/kg/day | NOAEL (rabbit [16]): ≥ 250 mg/kg/day | NEL (rat [17]; systemic / pathology microscopic / blood vessel / inflammation + systemic / pathology microscopic / blood vessel / necrosis): < 25 mg/kg/day | LOAEL (rat [17]; [42]): > 250 mg/kg/day | NOAEL (rat [17]; [42]): ≥ 250 mg/kg/day | LEL (rabbit [18]; [43]): 100 mg/kg/day | LOAEL (rabbit [18]; [43]): > 100 mg/kg/day | NOAEL (rabbit [18]; [43]): ≥ 100 mg/kg/day | LEL (rabbit [18]; [27]): 100 mg/kg/day | LOAEL (rabbit [18]; [27]): > 100 mg/kg/day | NEL (rabbit [18]; [27]): 30 mg/kg/day | NOAEL (rabbit [18]; [27]): ≥ 100 mg/kg/day

O=[Si]=O [Silica]
LOAEL (rat [19]; [44]): > 0.03 ppm | NOAEL (rat [19]; [44]): ≥ 0.03 ppm | LEL (rat [19]; systemic / pathology microscopic / lung / proliferation): 0.001 ppm | LEL (rat [20]): 0.03 ppm | LOAEL (rat [20]): > 0.03 ppm | NEL (rat [20]): < 0.03 ppm | NOAEL (rat [20]): ≥ 0.03 ppm | LEL (rat [21]): 0.06 ppm | LOAEL (rat [21]): > 0.06 ppm | NEL (rat [21]): < 0.06 ppm | NOAEL (rat [21]): ≥ 0.06 ppm | LEL (rat [22]): 0.03 ppm | LOAEL (rat [22]): > 0.03 ppm | NEL (rat [22]): < 0.03 ppm | NOAEL (rat [22]): ≥ 0.03 ppm
